Experimental data: patent publication US11407736B2 (priority 2019, dated 2022)
Where two headings read alike, the source gives them in different places.

Columns and labels:
U937 cells = assay: U937 cell necroptosis assay (TNFa + zVAD, CellTiter-Glo); assay type: cell-based, human; conditions: Homo sapiens
Method: (§1) In this example, U937 and L929 cells were exposed to compounds of the present disclosure and a cell necroptosis assay was conducted to evaluate the compounds' activity against human RIP1 and murine RIP1.
(§2) U937 and L929 cells were obtained from the American Type Culture Collection (Manassa, Va., USA). Both cells were maintained in logarithmic growth phase in complete RPMI 1640 media (Sigma, ST Louis, Mo., USA) supplemented with 10% fetal bovine serum (Sigma, ST Louis, Mo., USA) at 37° C. with 5% CO2. For necroptosis assay, L929 cells were plated for 18 h in 100 μL/well medium at 10K cells/well in Costar 96-well black clear-bottom plates (Fisher Scientific, Hampton, N.H., USA); U937 cells were plated on the day of the assay in 50 4/well medium containing 60 uM zVAD-fink (Lonza, Basel, Switzerland) at 50K cells/well. Medium from L929 cells were removed from the 96-well plates and replaced with 50 μL/well new medium containing 40 uM zVAD-fink. Each compound of the present disclosure evaluated in this example was serially diluted in DMSO from 2.5 mM in 4-fold dilutions, and then diluted 1:125 in complete medium. 50 μL/well 2× of the compound was then added to the cells in the plates. The cells were pre-incubated with the compound for 1 hour at 37° C. with 5% CO2 and before addition of 10 μL/well 1 1×TNFa (Peprotech, Rocky Hill, N.J., USA) to give a final concentration of 2 ng/mL for TNFa. The relative amount of necroptosis cells was determined by luminescent using a Wallac Victor2 Luminometer (PerkinElmer, Waltham, Mass., USA) and a CellTiter-Glo® Luminescent Cell Viability Reagent Assay (Promega, Madison, Wis., USA) added per manufacturer instructions after 18 hours of TNFa stimulation at 37° C. with 5% CO2. This example establishes that embodiments of the compounds described herein have unexpectedly potent activity against human RIP1 and murine RIP1, which allows their assessment in in vivo mouse models of disease.

L929 cells = assay: L929 cell necroptosis assay (TNFa + zVAD, CellTiter-Glo); assay type: cell-based, murine; conditions: Mus musculus, L929, L929 cells, TNFa + zVAD; read-out: L929-CTG-recovery, L929, TNFa + zVAD (IC50)
Method: as §1
as §2, with “The cells were pre-incubated with the compound for 1 hour at 37° C. with 5% CO2 and before addition of 10 μL/well 1 1×TNFa (Peprotech, Rocky Hill, N.J., USA) to give a final concentration of 2 ng/mL for TNFa.” left out, “CO2.” for “CO2. This example establishes that embodiments of the compounds described herein have unexpectedly potent activity against human RIP1 and murine RIP1, which allows their assessment in in vivo mouse models of disease.”

RIPK1 = RIPK1 (Homo sapiens (Human), UniProt Q13546); assay: RIPK1 ADP-Glo biochemical kinase assay
RIPK1, sequence (Q13546 whole entry, species assumed): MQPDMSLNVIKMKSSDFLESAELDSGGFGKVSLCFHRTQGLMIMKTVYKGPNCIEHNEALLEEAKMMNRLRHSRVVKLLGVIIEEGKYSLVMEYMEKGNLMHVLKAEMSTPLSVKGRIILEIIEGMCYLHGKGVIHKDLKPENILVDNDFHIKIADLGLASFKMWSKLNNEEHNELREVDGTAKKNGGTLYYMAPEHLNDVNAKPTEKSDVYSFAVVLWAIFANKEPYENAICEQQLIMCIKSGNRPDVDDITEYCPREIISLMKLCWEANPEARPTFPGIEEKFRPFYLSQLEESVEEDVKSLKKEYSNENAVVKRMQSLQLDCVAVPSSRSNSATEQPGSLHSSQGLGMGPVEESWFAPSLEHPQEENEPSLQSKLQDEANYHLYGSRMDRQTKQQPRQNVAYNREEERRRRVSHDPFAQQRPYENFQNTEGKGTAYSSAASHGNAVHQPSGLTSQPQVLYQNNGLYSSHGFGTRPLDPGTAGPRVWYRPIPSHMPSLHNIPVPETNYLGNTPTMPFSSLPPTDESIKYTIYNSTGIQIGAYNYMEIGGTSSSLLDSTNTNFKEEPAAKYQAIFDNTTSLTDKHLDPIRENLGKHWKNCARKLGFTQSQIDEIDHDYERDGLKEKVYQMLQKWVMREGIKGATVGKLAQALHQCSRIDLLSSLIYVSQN
Method: The final reaction volume was 5.0ul.
Adding 5 μl of ADP-Glo™ terminated the reaction.

[1] = U-937, U937 cells, TNFa + zVAD, read-out: U937 Zvad TNF CTG Recovery, U937, TNFa + zVAD (IC50)
[2] = read-out: RIPK1 ADP-Glo Kinase (IC50)
[3] = U-937, read-out: U937 Zvad TNF CTG Recovery, U937, TNFa + zVAD (IC50), U937 cells, TNFa + zVAD

Row | IC50 (RIPK1; [2]) [µM] | Compound | IC50 (U937 cells; [1]) [µM] | IC50 (L929 cells) [µM] | IC50 (RIPK1) [µM] | IC50 (U937 cells; [3]) [µM]
1 | 0.019 | CCOC(=O)CCc1ccc2c(c1)N(C)C(=O)[C@@H](NC(=O)c1n[nH]c(Cc3ccccc3)n1)CO2 [Compound I-1, Ethyl (S)-3-(3-(5-benzyl-1H-1,2,4-triazole-3-carboxamido)-5-methyl-4-oxo-2,3,4,5-tetrahydrobenzo[b][1,4]oxazepin-7-yl)propanoate] | 0.0027 | 2.36 |  | 
2 | 0.0197 | CCOC(=O)CCc1ccc2c(c1)N(C)C(=O)[C@@H](NC(=O)c1ncn(Cc3ccccc3F)n1)CO2 [Compound I-5, Ethyl (S)-3-(3-(1-(2-fluorobenzyl)-1H-1,2,4-triazole-3-carboxamido)-5-methyl-4-oxo-2,3,4,5-tetrahydrobenzo[b][1,4]oxazepin-7-yl)propanoate] | 0.0005 | 0.0188 |  | 
3 | 0.0724 | CN1C(=O)[C@@H](NC(=O)c2ncn(Cc3ccccc3F)n2)COc2ccc(CCC(=O)O)cc21 [Compound I-6, (S)-3-(3-(1-(2-fluorobenzyl)-1H-1,2,4-triazole-3-carboxamido)-5-methyl-4-oxo-2,3,4,5-tetrahydrobenzo[b][1,4]oxazepin-7-yl)propanoic acid] | 0.0438 | 97.5 |  | 
4 | 0.021 | CN1C(=O)[C@@H](NC(=O)c2ncn(Cc3ccccc3F)n2)COc2ccc(CCC(=O)Nc3ccc4cn[nH]c4c3)cc21 [Compound I-7, (S)—N-(7-(3-((1H-indazol-6-yl)amino)-3-oxopropyl)-5-methyl-4-oxo-2,3,4,5-tetrahydrobenzo[b][1,4]oxazepin-3-yl)-1-(2-fluorobenzyl)-1H-1,2,4-triazole-3-carboxamide] | 0.0009 | 1.96 |  | 
5 | 0.0529 | CCOC(=O)CCc1ccc2c(c1)N(C)C(=O)[C@@H](NC(=O)c1ncn(Cc3c(Cl)cccc3Cl)n1)CO2 [Compound I-8, Ethyl (S)-3-(3-(1-(2,6-dichlorobenzyl)-1H-1,2,4-triazole-3-carboxamido)-5-methyl-4-oxo-2,3,4,5-tetrahydrobenzo[b][1,4]oxazepin-7-yl)propanoate] | 0.0014 | 0.0092 |  | 
6 | 0.0429 | CN1C(=O)[C@@H](NC(=O)c2n[nH]c(Cc3ccccc3)n2)COc2ccc(CCC(=O)N3CCCC3)cc21 [Compound I-10, (S)-5-benzyl-N-(5-methyl-4-oxo-7-(3-oxo-3-(pyrrolidin-1-yl)propyl)-2,3,4,5-tetrahydrobenzo[b][1,4]oxazepin-3-yl)-1H-1,2,4-triazole-3-carboxamide] | 0.0079 | 11.2 |  | 
7 | 0.0571 | CN1C(=O)[C@@H](NC(=O)c2n[nH]c(Cc3ccccc3)n2)COc2ccc(CCC(=O)N3CCOCC3)cc21 [Compound I-11, (S)-5-benzyl-N-(5-methyl-7-(3-morpholino-3-oxopropyl)-4-oxo-2,3,4,5-tetrahydrobenzo[b][1,4]oxazepin-3-yl)-1H-1,2,4-triazole-3-carboxamide] | 0.0081 | 14.1 |  | 
8 | 12.3 | CN1C(=O)[C@@H](NC(=O)c2ccc(Oc3ccc(F)cc3)cn2)COc2ccc(C#CC(C)(C)O)cc21 [Compound I-122, (S)-5-(4-fluorophenoxy)-N-(7-(3-hydroxy-3-methylbut-1-yn-1-yl)-5-methyl-4-oxo-2,3,4,5-tetrahydrobenzo[b][1,4]oxazepin-3-yl)picolinamide] | 40.4 |  |  | 
9 | 0.173 | CN1C(=O)[C@@H](NC(=O)c2cc(Oc3ccc(F)cc3)ccn2)COc2ccc(C#CC3(O)CCNCC3)cc21 [Compound I-133, (S)-4-(4-fluorophenoxy)-N-(7-((4-hydroxypiperidin-4-yl)ethynyl)-5-methyl-4-oxo-2,3,4,5-tetrahydrobenzo[b][1,4]oxazepin-3-yl)picolinamide] | 0.492 |  |  | 
10 |  | CN1C(=O)[C@@H](NC(=O)c2cc(Oc3ccccc3)ccn2)COc2ccc(CN3CC4(CCOCC4)C3)cc21 [Compound I-150, (S)—N-(7-((7-oxa-2-azaspiro[3.5]nonan-2-yl)methyl)-5-methyl-4-oxo-2,3,4,5-tetrahydrobenzo[b][1,4]oxazepin-3-yl)-4-phenoxypicolinamide] | 0.0831 |  | 0.0447 | 
11 | 0.0362 | CN1C(=O)[C@@H](NC(=O)c2cc(Oc3ccccc3)ccn2)COc2ccc(C#CC(=O)O)cc21 [Compound I-161, (S)-3-(5-methyl-4-oxo-3-(4-phenoxypicolinamido)-2,3,4,5-tetrahydrobenzo[b][1,4]oxazepin-7-yl)propiolic acid] | 0.0455 |  |  | 
12 | 0.0544 | COc1ccnc(C(=O)N[C@H]2COc3ccc(C#CC4(O)COC4)cc3N(C)C2=O)c1 [Compound I-162, (S)—N-(7-((3-hydroxyoxetan-3-yl)ethynyl)-5-methyl-4-oxo-2,3,4,5-tetrahydrobenzo[b][1,4]oxazepin-3-yl)-4-methoxypicolinamide] | 1.66 |  |  | 
13 | 0.518 | CN1C(=O)[C@@H](NC(=O)c2cc(Oc3ccc(C#N)cc3)ccn2)COc2cc(C#CC(C)(C)O)ccc21 [II-17, (S)-4-(4-cyanophenoxy)-N-(8-(3-hydroxy-3-methylbut-1-yn-1-yl)-5-methyl-4-oxo-2,3,4,5-tetrahydrobenzo[b][1,4]oxazepin-3-yl)picolinamide] | 1.49 |  |  | 
14 | 1.28 | COc1cccc(-c2ccnc(C(=O)N[C@H]3COc4ccc(C#CC(C)(C)O)cc4N(C)C3=O)c2)c1 [II-23, (S)—N-(7-(3-hydroxy-3-methylbut-1-yn-1-yl)-5-methyl-4-oxo-2,3,4,5-tetrahydrobenzo[b][1,4]oxazepin-3-yl)-4-(3-methoxyphenyl)picolinamide] | 0.545 |  |  | 
15 |  | CN1C(=O)[C@@H](NC(=O)c2cc(Oc3ccccc3)ccn2)COc2cc(N3CCC4(CCOCC4)CC3)ccc21 [II-26, (S)—N-(5-methyl-4-oxo-8-(3-oxa-9-azaspiro[5.5]undecan-9-yl)-2,3,4,5-tetrahydrobenzo[b][1,4]oxazepin-3-yl)-4-phenoxypicolinamide] | 0.51 |  | 0.193 | 

Row | Compound | IC50 (RIPK1; [2]) [µM] | IC50 (U937 cells; [1]) [µM] | IC50 (L929 cells) [µM] | IC50 (RIPK1) [µM] | IC50 (U937 cells; [3]) [µM]
16 | CN1C(=O)[C@@H](NC(=O)c2n[nH]c(Cc3ccccc3)n2)COc2ccc(CCC(=O)Nc3ccc4cn[nH]c4c3)cc21 [Compound I-3, (S)—N-(7-(3-((1H-indazol-6-yl)amino)-3-oxopropyl)-5-methyl-4-oxo-2,3,4,5-tetrahydrobenzo[b][1,4]oxazepin-3-yl)-5-benzyl-1H-1,2,4-triazole-3-carboxamide] | 0.0402 | 0.0049 | 0.428 |  | 
17 | COc1ccnc(C(=O)N[C@H]2COc3ccc(C#CC(C)(C)O)cc3N(C)C2=O)c1 [Compound I-163, (S)—N-(7-(3-hydroxy-3-methylbut-1-yn-1-yl)-5-methyl-4-oxo-2,3,4,5-tetrahydrobenzo[b][1,4]oxazepin-3-yl)-4-methoxypicolinamide] | 0.509 |  |  |  | 3.32
18 | CN1C(=O)[C@@H](NC(=O)c2cc(Oc3ccccc3)ccn2)COc2ccc(C#CC3(O)CS(=O)(=O)C3)cc21 [Compound I-209, (S)—N-(7-((3-hydroxy-1,1-dioxidothietan-3-yl)ethynyl)-5-methyl-4-oxo-2,3,4,5-tetrahydrobenzo[b][1,4]oxazepin-3-yl)-4-phenoxypicolinamide] | 0.106 |  |  |  | 0.0595
